Measured values as given in ChEMBL document CHEMBL6114966, “Discovery of maleimide derivatives as m6A demethylase ALKBH5 inhibitors” (Bioorg Med Chem, 2025).
The source made the active and inactive calls. The rule behind the calls is not given here.

How the values were obtained:
RNA demethylase ALKBH5 [1] = target: T1, RNA demethylase ALKBH5 (Homo sapiens, UniProt Q6P6C2); experiment: Inhibition of ALKBH5 (unknown origin) using 5'-ATTGTCA(m6A)CAGCAGA-FAM-3' as substrate measured after 30 mins by fluorescence polarization assay
Target sequence in this assay (Q6P6C2 whole entry): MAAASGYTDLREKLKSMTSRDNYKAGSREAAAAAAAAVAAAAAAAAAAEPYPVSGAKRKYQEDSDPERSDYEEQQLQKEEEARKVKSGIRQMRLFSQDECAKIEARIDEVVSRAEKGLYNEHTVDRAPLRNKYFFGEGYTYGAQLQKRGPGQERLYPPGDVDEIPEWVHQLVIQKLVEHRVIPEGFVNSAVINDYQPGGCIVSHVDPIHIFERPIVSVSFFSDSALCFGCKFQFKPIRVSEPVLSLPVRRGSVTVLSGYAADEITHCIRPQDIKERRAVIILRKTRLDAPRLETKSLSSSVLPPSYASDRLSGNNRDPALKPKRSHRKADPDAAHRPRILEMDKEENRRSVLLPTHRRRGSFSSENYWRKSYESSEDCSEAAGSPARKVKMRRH

RNA demethylase ALKBH5 [2] = target: T1, RNA demethylase ALKBH5; experiment: Inhibition of ALKBH5 (unknown origin) using 5'-TAGACATTGCCATTCTCGATAGG (m6A) TCCGGTCAAACCTAGAC GAATTCCA-3' as substrate measured after 2 hrs in presence of 2-OG by PAGE based restriction enzyme digestion assay
Target sequence in this assay (Q6P6C2 whole entry): as the sequence (Q6P6C2 whole entry) above

RNA demethylase ALKBH5 [3] = target: T1, RNA demethylase ALKBH5; experiment: Binding affinity to ALKBH5 (unknown origin) assessed as change in melting temperature at 100 uM measured after 30 mins by thermal shift assay
Target sequence in this assay (Q6P6C2 2-394 limits assumed): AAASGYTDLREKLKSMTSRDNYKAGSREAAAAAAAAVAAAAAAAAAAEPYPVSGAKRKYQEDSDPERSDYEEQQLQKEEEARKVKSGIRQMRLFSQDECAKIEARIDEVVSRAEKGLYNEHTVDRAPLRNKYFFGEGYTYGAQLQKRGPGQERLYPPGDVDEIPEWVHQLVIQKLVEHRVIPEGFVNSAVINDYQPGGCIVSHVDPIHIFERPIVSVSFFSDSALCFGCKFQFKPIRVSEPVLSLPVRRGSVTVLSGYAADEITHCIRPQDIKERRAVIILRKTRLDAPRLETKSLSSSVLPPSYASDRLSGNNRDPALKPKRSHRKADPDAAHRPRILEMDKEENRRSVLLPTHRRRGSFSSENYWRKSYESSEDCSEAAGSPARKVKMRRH

RNA demethylase ALKBH5 [4] = target: T1, RNA demethylase ALKBH5; experiment: Binding affinity to ALKBH5 (unknown origin) assessed as change in melting temperature at 50 uM measured after 30 mins by thermal shift assay
Target sequence in this assay (Q6P6C2 2-394 limits assumed): as above

RNA demethylase ALKBH5 [5] = target: T1, RNA demethylase ALKBH5; experiment: Binding affinity to ALKBH5 (unknown origin) assessed as change in melting temperature at 25 uM measured after 30 mins by thermal shift assay
Target sequence in this assay (Q6P6C2 2-394 limits assumed): as above

RNA demethylase ALKBH5 [6] = target: T1, RNA demethylase ALKBH5; experiment: Inhibition of ALKBH5 (unknown origin) at 20 to 100 uM using 5'-TAGACATTGCCATTCTCGATAGG (m6A) TCCGGTCAAACCTAGAC GAATTCCA-3' as substrate measured after 2 hrs in presence of 2-OG by PAGE based restriction enzyme digestion assay; settings: dose 20-100 µM
Target sequence in this assay (Q6P6C2 2-394 limits assumed): as the sequence (Q6P6C2 2-394 limits assumed) above

RNA demethylase ALKBH5 [7] = target: T1, RNA demethylase ALKBH5; experiment: Binding affinity to ALKBH5 (unknown origin) by 1H NMR STD analysis
Target sequence in this assay (Q6P6C2 2-394 limits assumed): as the sequence (Q6P6C2 2-394 limits assumed) above

[8] = target: T2, Alpha-ketoglutarate-dependent dioxygenase FTO (Homo sapiens, UniProt Q9C0B1); experiment: Inhibition of FTO (unknown origin) using 5'-TAGACATTGCCATTCTCGATAGG (m6A) TCCGGTCAAACCTAGAC GAATTCCA-3' as substrate measured after 2 hrs in presence of 2-OG by PAGE based restriction enzyme digestion assay
Target sequence in this assay (Q9C0B1 whole entry): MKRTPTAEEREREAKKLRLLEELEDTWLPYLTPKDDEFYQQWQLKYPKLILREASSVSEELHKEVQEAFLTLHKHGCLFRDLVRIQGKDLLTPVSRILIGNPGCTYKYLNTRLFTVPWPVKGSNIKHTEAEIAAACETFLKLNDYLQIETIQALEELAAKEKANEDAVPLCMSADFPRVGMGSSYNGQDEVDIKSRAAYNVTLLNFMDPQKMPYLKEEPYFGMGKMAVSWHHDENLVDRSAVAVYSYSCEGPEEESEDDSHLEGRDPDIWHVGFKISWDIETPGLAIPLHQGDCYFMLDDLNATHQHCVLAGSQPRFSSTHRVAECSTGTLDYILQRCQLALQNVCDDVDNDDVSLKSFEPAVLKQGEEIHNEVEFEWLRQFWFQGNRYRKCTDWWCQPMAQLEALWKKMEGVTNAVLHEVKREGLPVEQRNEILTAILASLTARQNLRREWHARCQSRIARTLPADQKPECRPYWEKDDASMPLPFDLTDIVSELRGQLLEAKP

[9] = target: T2, Alpha-ketoglutarate-dependent dioxygenase FTO; experiment: Inhibition of FTO (unknown origin) at 25 to 200 uM using 5'-TAGACATTGCCATTCTCGATAGG (m6A) TCCGGTCAAACCTAGAC GAATTCCA-3' as substrate measured after 2 hrs in presence of varying levels of 2-OG by PAGE based restriction enzyme digestion assay; settings: dose 25-200 µM
Target sequence in this assay (Q9C0B1 whole entry, looked up): as the sequence (Q9C0B1 whole entry) above

MV4-11 = experiment: Antiproliferative activity against human MV4-11 cells assessed as reduction in cell viability measured after 72 hrs by CellTiter-Lumi luminescence assay; assay type: functional, cell-based; settings: MV4-11, 72 h
RNA demethylase ALKBH5 [10] = target: T1, RNA demethylase ALKBH5; experiment: Inhibition of ALKBH5 in human MV4-11 cells assessed as increase in intracellular m6A level by dot blot assay; assay type: cell-based; settings: dose 20-40 µM
Target sequence in this assay (Q6P6C2 2-394 limits assumed): as the sequence (Q6P6C2 2-394 limits assumed) above

RNA demethylase ALKBH5 [11] = target: T1, RNA demethylase ALKBH5; experiment: Inhibition of ALKBH5 in human MV4-11 cells assessed as down regulation of TACC3 mRNA expression measured after 48 hrs by RT-qPCR analysis; assay type: cell-based; settings: dose 10-40 µM
RNA demethylase ALKBH5 [12] = target: T1, RNA demethylase ALKBH5; experiment: Inhibition of ALKBH5 in human MV4-11 cells assessed as down regulation of AXL mRNA expression measured after 48 hrs by RT-qPCR analysis; assay type: cell-based; settings: dose 10-40 µM
RNA demethylase ALKBH5 [13] = target: T1, RNA demethylase ALKBH5; experiment: Inhibition of ALKBH5 in human MV4-11 cells assessed as upregulation of p21 mRNA expression measured after 48 hrs by RT-qPCR analysis; assay type: cell-based; settings: dose 10-40 µM
RNA demethylase ALKBH5 [14] = target: T1, RNA demethylase ALKBH5; experiment: Inhibition of ALKBH5 in human MV4-11 cells assessed as down regulation of TACC3 expression measured after 48 hrs by Western blot analysis; assay type: cell-based; settings: dose 5-40 µM

N#Cc1ccc(N2C(=O)C(Cl)=C(Nc3ccccc3C(=O)O)C2=O)cc1 was tested, and the IC50 (RNA demethylase ALKBH5 [1]) was greater than 200 µM.

For C#Cc1cccc(N2C(=O)C(Cl)=C(Nc3ccccc3C(=O)O)C2=O)c1, the IC50 (RNA demethylase ALKBH5 [1]) was greater than 200 µM.

With O=C(O)c1ccccc1NC1=C(Cl)C(=O)N(c2ccc(I)c(Br)c2)C1=O the IC50 (RNA demethylase ALKBH5 [1]) was 9.57 µM.

O=C(O)c1ccccc1NC1=C(Cl)C(=O)N(c2ccccc2Cl)C1=O showed an IC50 (RNA demethylase ALKBH5 [1]) of 47.8 µM.

For Cc1cc([N+](=O)[O-])c(Br)cc1N1C(=O)C(Cl)=C(Nc2ccccc2C(=O)O)C1=O, the IC50 (RNA demethylase ALKBH5 [1]) was greater than 200 µM.

Molecule Cc1cc(N2C(=O)C(Cl)=C(Nc3ccccc3C(=O)O)C2=O)ccc1C(F)(F)F has an IC50 (RNA demethylase ALKBH5 [1]) greater than 200 µM.

For N#Cc1ccc(Br)cc1N1C(=O)C(Cl)=C(Nc2ccccc2C(=O)O)C1=O, the IC50 (RNA demethylase ALKBH5 [1]) was 69.1 µM.

In the case of O=C(O)c1ccccc1NC1=C(Cl)C(=O)N(c2cccc(O)c2)C1=O, the IC50 (RNA demethylase ALKBH5 [1]) is reported as greater than 200 µM.

Work on Cc1ccc(C(=O)O)c(NC2=C(Cl)C(=O)N(c3ccc(Br)c(Br)c3)C2=O)c1 yielded an IC50 (RNA demethylase ALKBH5 [1]) greater than 200 µM.

In the case of O=C(O)c1ccccc1NC1=C(Cl)C(=O)N(c2ccc(Cl)c(Cl)c2)C1=O, the IC50 (RNA demethylase ALKBH5 [1]) is reported as 20.6 µM.

For O=C1C(Cl)=C(Nc2ccccc2)C(=O)N1c1ccc(Cl)c(Cl)c1, the IC50 (RNA demethylase ALKBH5 [2]) was less than 100 µM, the IC50 (RNA demethylase ALKBH5 [1]) was 45.4 µM and the ΔTm (RNA demethylase ALKBH5 [3]) was -2.4 °C. It also gave a ΔTm (RNA demethylase ALKBH5 [4]) of -1.3 °C and a ΔTm (RNA demethylase ALKBH5 [5]) of -1.2 °C.

N#Cc1ccc(N2C(=O)C(Cl)=C(Nc3ccccc3C(=O)O)C2=O)cc1Br showed an IC50 (RNA demethylase ALKBH5 [1]) of 18.7 µM.

Molecule NS(=O)(=O)c1cccc(NC2=C(Cl)C(=O)N(c3ccc(Cl)c(Cl)c3)C2=O)c1 has an IC50 (RNA demethylase ALKBH5 [1]) greater than 200 µM.

N#Cc1cc(C(F)(F)F)ccc1N1C(=O)C(Cl)=C(Nc2ccccc2C(=O)O)C1=O gave an IC50 (RNA demethylase ALKBH5 [1]) greater than 200 µM.

For O=C(O)c1ccccc1NC1=C(Cl)C(=O)N(c2cccc(Cl)c2)C1=O, the IC50 (RNA demethylase ALKBH5 [1]) was 29.6 µM.

O=C(O)c1ccccc1NC1=C(Cl)C(=O)N(c2ccc(Br)c(Br)c2)C1=O showed an IC50 (RNA demethylase ALKBH5 [1]) of 17.4 µM.

CC(=O)c1ccc(N2C(=O)C(Cl)=C(Nc3ccccc3C(=O)O)C2=O)cc1 showed an IC50 (RNA demethylase ALKBH5 [1]) of 34.1 µM.

Cc1ccc(N2C(=O)C(Cl)=C(Nc3ccccc3C(=O)O)C2=O)cc1Br showed an IC50 (RNA demethylase ALKBH5 [1]) of 32.9 µM.

COC(=O)c1cccc(NC2=C(Cl)C(=O)N(c3ccc(Cl)c(Cl)c3)C2=O)c1 was tested, and the IC50 (RNA demethylase ALKBH5 [1]) was greater than 200 µM.

With O=C(O)c1ccccc1NC1=C(Cl)C(=O)N(c2ccc(I)c(Cl)c2)C1=O the IC50 (RNA demethylase ALKBH5 [2]) was 11.2 µM, the IC50 (RNA demethylase ALKBH5 [1]) was 2.32 µM and the inhibition (RNA demethylase ALKBH5 [6]) was “Active”. For the same molecule, the Activity (RNA demethylase ALKBH5 [7]) was “Active”, the IC50 [8] was greater than 250 µM and the inhibition [9] was “Active”. The IC50 (MV4-11) was 31.5 µM, the inhibition (RNA demethylase ALKBH5 [10]) was “Dose-dependent-effect” and the inhibition (RNA demethylase ALKBH5 [11]) was “Dose-dependent-effect”. For the same molecule, the inhibition (RNA demethylase ALKBH5 [12]) was “Dose-dependent-effect”, the inhibition (RNA demethylase ALKBH5 [13]) was “Dose-dependent-effect” and the inhibition (RNA demethylase ALKBH5 [14]) was “Dose-dependent-effect”.

In the case of O=C(O)c1ccccc1NC1=C(Cl)C(=O)N(c2cccc(I)c2)C1=O, the IC50 (RNA demethylase ALKBH5 [1]) is reported as 37 µM.

Cc1ccc(Br)cc1N1C(=O)C(Cl)=C(Nc2ccccc2C(=O)O)C1=O was tested, and the IC50 (RNA demethylase ALKBH5 [1]) was greater than 200 µM.

With O=C(O)c1ccc(F)cc1NC1=C(Cl)C(=O)N(c2ccc(Br)c(Br)c2)C1=O the IC50 (RNA demethylase ALKBH5 [1]) was 5.34 µM.

Work on COc1ccc(N2C(=O)C(Cl)=C(Nc3ccccc3C(=O)O)C2=O)cc1 yielded an IC50 (RNA demethylase ALKBH5 [1]) greater than 200 µM.

O=C(O)c1ccccc1NC1=C(Cl)C(=O)N(c2ccc(C(F)(F)F)c(Br)c2)C1=O was tested, and the IC50 (RNA demethylase ALKBH5 [2]) was 25.9 µM, the IC50 (RNA demethylase ALKBH5 [1]) was 16.9 µM and the inhibition (RNA demethylase ALKBH5 [6]) was “Active”.

With O=C(O)c1ccccc1NC1=C(Cl)C(=O)N(c2ccc(O)cc2)C1=O the IC50 (RNA demethylase ALKBH5 [1]) was greater than 200 µM.

O=C(O)c1ccccc1NC1=C(Cl)C(=O)N(c2ccc([N+](=O)[O-])c(Br)c2)C1=O gave an IC50 (RNA demethylase ALKBH5 [1]) of 16.5 µM.

O=C(O)c1ccccc1NC1=C(Cl)C(=O)N(c2cccc(Br)c2)C1=O showed an IC50 (RNA demethylase ALKBH5 [1]) of 21.3 µM.
